Two molecules from patent US8273404B2, “Extraction of solvents from drug containing polymer reservoirs” (Cordis Corporation, priority 2008, dated 2012) can be followed below.

The format of data set [1] is physicochemical. Particulars: 0.02 weight percent BHT per total basecoat solids. An excerpt:
Referring to FIG. 113, there is illustrated in graphical format, the results of the same drug screening as described above with the solution applied to a cobalt-chromium, 18 mm stent. In this test, two sets of solution samples were utilized, one with sirolimus and polymer solution containing the antioxidant and one with sirolimus and polymer solution containing no antioxidant. The antioxidant utilized was 0.02 weight percent BHT per total basecoat solids. The test was utilized to determine the percent drug content change over a time period of 0 to 12 weeks under two conditions; namely, 40° C. with 75 percent relative humidity, and ambient conditions (25° C.).

A further data set relates to LDL. Description: Ex vivo LDL peroxidation (diene conjugates after addition of copper ions) of MVP patients. Set-up: species or system human. Particulars: treatment for one month, preliminary results. An excerpt: Dietary intervention and smoking habits were similar in all groups. Probucol may simply be a more powerful antioxidant than the combination of vitamins. To this regard, preliminary results from the continuous spectrophotometric monitoring of diene conjugates in LDL after the addition of copper ions to the isolated lipoprotein ex vivo (Free Radic Res Commun 1989; 6:67-75) of MVP patients are noteworthy.

Data set [2] concerns coronary restenosis after angioplasty. As to the kind of experiment: MultiVitamins and Probucol (MVP) randomized clinical trial, angiographic and clinical endpoints. Type of data set: in vivo, human. An excerpt: It was not possible to determine with angiography alone whether probucol acted via inhibition of tissue hyperplasia or improvement in vascular remodeling. […] In addition, the invention enables the skilled practitioner to use probucol in conjunction with other percutaneous coronary interventions such as stenting if it is deemed appropriate.
(§1) Beginning thirty days prior to scheduled angioplasty, patients were randomly assigned to receive either probucol alone, multivitamins alone, the combination of probucol and multivitamins, or placebo. Probucol 500 mg or matched placebo was administered twice daily. The multivitamin complex, consisting of vitamin E 700 IU, vitamin C 500 mg and beta-carotene 30,000 IU, or matched placebo was also administered in one tablet twice daily. All patients received an extra dose of probucol 1000 mg and/or vitamin E 2000 IU and/or matched placebos twelve hours before angioplasty, according to randomization assignment. […] All patients received aspirin 325 mg daily started at least thirty days before procedure and continued for the study period. Balloon angioplasty was performed according to standard techniques. Intracoronary nitroglycerin (0.3 mg) was given for each target artery for both pre- and post-dilatation angiography and at follow-up. The sequence of contrast injections with the exact degree of angulation was recorded and used for every angiogram. Coronary arteriograms (pre-, post-procedure, and final follow-up) were analyzed together using the Coronary Measurement System (CMS), as previously reported. Patient follow-up included clinical evaluation, exercise treadmill testing, blood chemistry, pill count and drug level measurements, and dietary assessment and intervention. Patients were readmitted for follow-up coronary angiography at five to seven months. Patients in whom arteriography was performed for clinical reasons before the fifth month returned for repeat angiographic examination at five to seven months if no definite angiographic restenosis was present on at least one dilated site. During follow-up, patients with recurrence or exacerbation of anginal symptoms were treated with medical therapy or revascularization procedures (reangioplasty or Coronary Bypass Surgery) as clinically indicated. Patients with angiographic restenosis (lesion>50%. at follow-up) without clinical evidence of ischemia were not subjected to further interventional procedures.
Probucol is one of the first pharmacological interventions shown to prevent coronary restenosis after balloon angioplasty. However, its mechanism of action and its efficacy as a vascular remodeling agent has never been studied. […]

In data set [3] the test system is coronary arteries after balloon angioplasty. Description: IVUS substudy of the MVP restenosis trial (lumen, wall, EEM areas after balloon angioplasty). Type of data set: in vivo, human. Here is the method: The present invention concerns the IVUS substudy from the MVP restenosis trial. MVP was a double-blind placebo-controlled randomized clinical trial with four study groups. The protocol was approved by the Montreal Heart Institute institutional review board. The MVP study design, inclusion and exclusion criteria have been previously described (N Engl J Med 1997; 365-372). Briefly, patients referred for elective coronary angioplasty were evaluated at least 30 days prior to their scheduled procedure. Eligible patients were asked to provide written informed consent. Patients were eligible if they were scheduled to undergo standard balloon angioplasty on at least one native coronary artery and had at least one de novo target lesion with luminal narrowing of fifty percent or more by caliper measurements.
as §1, with “Patients in whom arteriography was performed for clinical reasons before the fifth month returned for repeat angiographic examination at five to seven months if no definite angiographic restenosis was present on at least one dilated site. During follow-up, patients with recurrence or exacerbation of anginal symptoms were treated with medical therapy or revascularization procedures (reangioplasty or Coronary Bypass Surgery) as clinically indicated. Patients with angiographic restenosis (lesion>50%. at follow-up) without clinical evidence of ischemia were not subjected to further interventional procedures.” left out
IVUS examinations were performed using 30 MHZ, 3.5 French mechanical (1800 rpm) ultrasound catheters (Boston Scientific, Natick, Mass.) and a dedicated imaging console (Hewlett Packard, Andover, Mass.) (Curr Opin Cardiol 1994; 9:627-633). […] IVUS imaging was monitored by an experienced cardiologist, but the angioplasty operator was blinded to ultrasound results to avoid altering standard balloon angioplasty practice. […] One angiographic view was recorded on videotape before beginning pullback of the IVUS catheter. […]

The structures appear in SMILES notation.

In the case of `Cc1cc(C(C)(C)C)c(O)c(C(C)(C)C)c1` [BHT, Butylated Hydroxytoluene], the “effect on sirolimus drug degradation on coated stent” value in data set [1] was “lessens drug degradation at both 8 weeks and 12 weeks”.

Turning to `CC(C)(Sc1cc(C(C)(C)C)c(O)c(C(C)(C)C)c1)Sc1cc(C(C)(C)C)c(O)c(C(C)(C)C)c1` [Probucol Alone, 4,4′-([1-methylethylidene)bis(thio)]bis-[2,6-bis(1,1-dimethylethyl)phenol]], the “protection against LDL oxidation (lag phase for LDL peroxidation)” value with LDL was “significantly greater protection against LDL oxidation than vitamins alone or the combination of probucol and vitamins”. In addition, the “patients in whom restenosis still occurred” value in data set [2] (probucol alone) is reported as “over twenty percent”. In data set [2] (probucol given alone), the “reduction of angiographic lumen loss compared to placebo” value is reported as “sixty-eight percent”, the “reduction of restenosis rate per segment compared to placebo” value is “forty-seven percent” and the “reduction of the need for repeat angioplasty at 6 month compared to placebo” value is recorded as “fifty-eight percent”. For the same molecule, in data set [3] (IVUS, patients receiving probucol), the “reduction in lumen loss compared to non-probucol treated patients” value turned out to be 0.79 mm^2. In addition, in data set [3] (IVUS, per segment analysis), the “Lumen area, Follow-up Post PTCA (change)” value was −0.15 ± 1.70 mm^2. The “reduction in lumen loss compared to the placebo group only” value in data set [3] (IVUS, probucol given alone) came to 1.06 mm^2. In addition, in data set [3] (efficacy analysis in compliant patients), the “Lumen area, Follow-up Post PTCA (change)” value is reported as −0.15 ± 1.70 mm^2.
